79 compounds from paper PMC12040169 (PLOS Biology, 2025) can be followed below.

The viability is a read-out of living cells in per cent, often relative to untreated cells.

The nature of this data set: in vitro. The following applies: human, hela cells, % viability.

As to `OCc1ccc(-c2nccnc2NCc2ccccn2)cc1` [CBK037088], the viability at 28.5 h, 10 µM worked out at 106%. Same read-out and setting: in the case of `O=C(c1ccc(-c2cnc3[nH]c(=O)n(C4CCCCC4)c3n2)cc1)N1CCOCC1` [CBK064566] it was 106%; in that of `C[C@H](Nc1cncc(-c2cccc3ccccc23)n1)c1ccccc1` [CBK065654], 93.6%; in that of `Cc1ccc(-c2ncc(OC3CCN(C)CC3)nc2N)c(C)c1` [CBK145139], 97.5%. The same measure, in the same setting: the figure for `O=C(Cn1cnc2c(cnn2-c2ccccc2)c1=O)NCc1ccco1` [CBK287531] is 101%; for `O=C(Nc1sc2c(c1C(=O)O)CCC2)c1cccs1` [CBK152437] it is 95.2%.

With `Cc1c(C(=O)NC(Cc2ccsc2)c2cccnc2)cnn1C` (stereo not shown) [CBK285115], the viability at 28.5 h, 10 µM is 110%. The same measure, in the same setting: the figure for `O=C(O)CNC(=O)CN1C(=O)c2ccccc2C1=O` [CBK264077] is 98.6%; for `COc1ccc(CN2CCC(N3CCN(c4ccccc4F)CC3)CC2)cc1OCc1ccccc1` [CBK264720G] it is 105%; for `NC(=O)CN1CCC(C(=O)c2ccc(F)cc2)CC1` [CBK149130] it is 96.6%. The same measure, in the same setting: in the case of `O=C1CCCC[C@@H]2[C@@H](N1)[C@H](c1ccccc1)CN2Cc1ccnc2ccccc12` [CBK286280] it was 102%; in that of `CCN1C(=O)CC(n2c(C)nc3ccccc32)C1=O` (stereo not shown) [CBK287847], 108%; in that of `Nc1ncc(-c2ccc(C(=O)N3CCOCC3)cc2)cc1C(=O)Nc1ccncc1` [CBK160202], 93.6%. Same read-out and setting: the figure for `N#C/C(=C\c1ccc(-c2ccc(S(N)(=O)=O)cc2)o1)c1nc2ncc(Br)cc2[nH]1` [CBK266288] is 97.6%; for `Cc1ncccc1Oc1ccc(NC(=O)N2CCc3ccccc3CC2)cn1` [CBK018383] it is 96.6%. For `Cc1nc(C)n(CC(=O)N2CCc3sccc3C2c2ccco2)n1` (stereo not shown) [CBK281649], the viability at 28.5 h, 10 µM is 98.8%.

As to `Cc1ccncc1C(=O)NCc1ccccc1` [CBK200193], the viability at 28.5 h, 10 µM turned out to be 110%. Regarding `COc1cc(-c2nc(N)cc3cccnc23)cc(OC)c1OC` [CBK061892], the viability at 28.5 h, 10 µM stood at 101%. The same measure, in the same setting: the figure for `Cc1nn(Cc2nnc(SCC(=O)C(C)(C)C)o2)c(C)c1Br` [CBK005646] is 92.1%; for `COc1ccc(CN2CCN(Cc3ccccc3[N+](=O)[O-])CC2)c(OC)c1` [CBK263340] it is 91%; for `CC(=O)Nc1cccc(-c2cnc(N)c(N3CCN(CCN(C)C)CC3)n2)c1` [CBK063472] it is 91.1%. Same read-out and setting: in the case of `O=C(c1cnn2cccnc12)N1CCc2[nH]c3ccccc3c2C1` [CBK281874] it was 93%; in that of `O=C(OCc1cccc(C(=O)c2ccccc2)c1)c1ccc(-c2nnc(-c3ccccc3)o2)cc1` [CBK267852], 104%; in that of `COc1ccc(C)cc1S(=O)(=O)Nc1cc(N2CCN(C(C)C)CC2)c2occc2c1` [CBK073625C], 92%. The same measure, in the same setting: in the case of `CCN1C(=O)CC2(C1=O)C(=O)N(CCCOc1ccccc1)c1ccc(OC)cc12` (stereo not shown) [CBK075585] it was 98%. As to `COc1ccc(-c2cc(C(=O)NCCc3ccccn3)cnc2-c2cccc(C)c2)cc1` [CBK036730], the viability at 28.5 h, 10 µM came out at 93.7%. Regarding `Cc1nn(-c2ccccc2)c(C)c1CNC(=O)C1C2C=CC(C2)C1C(=O)O` (stereo not shown) [CBK286877], the viability at 28.5 h, 10 µM was 90.4%. Same read-out and setting: the figure for `Cc1cnc2c(N3CCCC3)nc(-c3cccnc3)cn12` [CBK092277] is 98.5%. Same read-out and setting: in the case of `CN(C)S(=O)(=O)c1ccc(C(=O)Nc2ccc(-c3ccccc3)cc2)cc1` [CBK264978] it was 96.2%. The same measure, in the same setting: the figure for `CCN(CC)CC1CCCCC1=O` (stereo not shown) [CBK023965G] is 93.9%; for `CC(C)=NNC(=O)CN(c1ccc(C)cc1)S(=O)(=O)c1ccccc1` [CBK262280] it is 99.4%; for `Cc1nn2c(COc3ccc(NC(=O)C4CCCCC4)cc3)nnc2c2ccccc12` [CBK268528] it is 104%. As to `O=C(Nc1nnc(-c2ccc3c(c2)OCCO3)o1)c1ccccc1F` [CBK287405], the viability at 28.5 h, 10 µM was determined as 112%. Still for that read-out and setting: the figure for `CCN(Cc1ccccc1)C(=O)NCCc1c[nH]cn1` [CBK155220] is 92.8%; for `O=C(O)CCc1ccc(S(=O)(=O)Nc2ccccc2Cc2ccccc2)cc1` [CBK295616] it is 99.6%. Same read-out and setting: the figure for `CC(=O)C1=C(O)C(=O)N(CCCC(=O)O)C1c1cccc([N+](=O)[O-])c1` (stereo not shown) [CBK263801] is 103%; for `O=C(CN1C(=O)C2C3C=CC(C3)C2C1=O)NCc1ccco1` (stereo not shown) [CBK265116] it is 96.4%. On the same count and under the same terms, in the case of `Cc1nc(C)c(-c2csc(Nc3ccc(C(=O)O)c(O)c3)n2)s1` [CBK267263] it was 101%; in that of `CCCn1nccc1C(=O)NC1CCCN(Cc2cccc(OC)c2)C1` (stereo not shown) [CBK306563], 84.9%. Turning to `CCCc1nc(CN2CCN(c3ccc4nncn4n3)CC2)cs1` [CBK305330], the viability at 28.5 h, 10 µM turned out to be 97.7%. As for `O=C(c1ccc2cc[nH]c2c1)N1CCN(CC2CCOC2)CC1` (stereo not shown) [CBK305541], the viability at 28.5 h, 10 µM turned out to be 99.2%. Still for that read-out and setting: the figure for `O=C(N[C@H]1COC(=O)N1)OCc1ccccc1` [CBK007606] is 114%; for `O=C(O)[C@H]1CN(C(=O)c2cccs2)C[C@@H]1c1ccc(F)cc1` [CBK283734] it is 98.1%. The same measure, in the same setting: in the case of `O=C(NC(c1ccc(-c2ccccc2)cc1)c1cnccn1)C1CCN(C/C=C/c2ccccc2)CC1` (stereo not shown) [CBK147984] it was 104%; in that of `CN1CCN(Cc2c(O)ccc3c(=O)c(-c4ccc(Cl)cc4)coc23)CC1` [CBK263314], 102%. Still for that read-out and setting: in the case of `CCOc1cccc2cc(-c3cc(=O)oc4cc(C)c(O)cc34)oc12` [CBK300517] it was 95.9%. Consider `COc1cccc(C2(C(=O)N3CCc4nc[nH]c(=O)c4C3)CC2)c1` [CBK304488], for which the viability at 28.5 h, 10 µM was 83.3%. Regarding `CCn1c(SCC(=O)Nc2ccc(C(C)=O)cc2)nnc1-c1cc(Br)ccc1O` [CBK268515], the viability at 28.5 h, 10 µM is 89.2%. The same measure, in the same setting: the figure for `O=C(O)CCC(=O)N1CCCc2ccccc21` [CBK051167] is 92.6%; for `Cc1cc(N2CCN(C(=O)CCc3nccs3)CC2)nc(C(C)C)n1` [CBK304778] it is 98.8%.

Regarding `O=C(c1ccc(C#CC2(O)CCCCC2)cc1)N1CCN(Cc2ccccc2)CC1` [CBK263094], the viability at 28.5 h, 10 µM is 100%.

`Cc1cnn(C2CCN(C(=O)CC3OCCc4ccccc43)CC2)c1` (stereo not shown) [CBK304186]: the viability at 28.5 h, 10 µM was determined as 93.6%. For `CCc1cc(Br)ccc1S(=O)(=O)NCCC#N` [CBK044760], the viability at 28.5 h, 10 µM was found to be 91.9%. The same measure, in the same setting: in the case of `COc1ccc2c(c1OC)C(=O)N1C2SC(C)(C)C1C(=O)O` (stereo not shown) [CBK011479] it was 98.9%. As to `COc1ccc(NC(=O)c2sc(Cl)nc2C)cc1` [CBK057902], the viability at 28.5 h, 10 µM came out at 97.1%. Still for that read-out and setting: in the case of `CC(=O)N1CCC2(C/C=C/C[C@H]3CN(C(=O)C4CCC4)CC[C@H]3NC(=O)CNC2=O)CC1` [CBK292108] it was 105%; in that of `Cn1ncc(Cl)c1C1CCCCCN1C(=O)c1ccco1` (stereo not shown) [CBK284915], 104%; in that of `O=C(NCc1ccco1)c1cnoc1-c1ccc(F)cc1` [CBK154960], 116%.

As for `Cc1n[nH]c(O)c1C(c1ccc(OC(=O)c2c(F)cccc2F)cc1)c1c(C)n[nH]c1O` [CBK265136], the viability at 28.5 h, 10 µM is 101%. On the same count and under the same terms, in the case of `Cn1c(CNC(=O)c2ccc(Cl)cc2)nnc1SCC(=O)c1ccc(Br)cc1` [CBK266145] it was 88.4%; in that of `CCOC(=O)N1CCC(NC(=O)N2CCC(C(=O)O)CC2)CC1` [CBK156080], 95.2%. On the same count and under the same terms, the figure for `CSc1nc(NC(=O)C(C)c2ccccc2)cc(N2CCNCC2)n1` (stereo not shown) [CBK026742T] is 91.2%.

`O=C(O)c1cc(N2C(=O)c3cccc4c([N+](=O)[O-])ccc(c34)C2=O)cc(N2C(=O)c3cccc4c([N+](=O)[O-])ccc(c34)C2=O)c1` [CBK262119]: the viability at 28.5 h, 10 µM (bulk resorufin, single well) amounted to 91.8%.

In the case of `COc1ccc(C(NC(=O)N2CCN(C(=O)OCc3ccccc3)CC2)c2ccccc2C)cn1` (stereo not shown) [CBK081469], the viability at 28.5 h, 10 µM turned out to be 91.2%.

In the case of `COc1cncc(-c2cc(N3CCN(S(=O)(=O)c4ccc(Cl)cc4)CC3)ncn2)c1` [CBK091162], the viability at 28.5 h, 10 µM amounted to 108%. Same read-out and setting: the figure for `Fc1ccc(-c2nccnc2OCc2ccc3c(c2)OCO3)cc1` [CBK106896] is 93.3%. For `Cn1c(=O)n(C)c2cc(CNC3(c4ccccc4)CC3)ccc21` [CBK282746], the viability at 28.5 h, 10 µM was determined as 87.9%. On the same count and under the same terms, in the case of `COc1cccc(OCC(=O)NCC(c2cccs2)N2CCOCC2)c1` (stereo not shown) [CBK304664] it was 91.6%; in that of `CN(CC(=O)O)S(=O)(=O)c1ccc(F)c2ccccc12` [CBK268447], 98.5%; in that of `O=C(Cc1cccs1)NCCc1c[nH]cn1` [CBK269805], 93.2%. On the same count and under the same terms, the figure for `CN(C)c1ccc(Nc2ncnc3c2cnn3CCC#N)cn1` [CBK306231] is 103%.

For the compound `CCOC(=O)CNS(=O)(=O)c1ccc(Cl)c(Cl)c1Cl` [CBK034428], the viability at 28.5 h, 10 µM amounted to 92%. Take `O=C(COc1ccc(I)cc1)Nc1cccnc1` [CBK263430]: the viability at 28.5 h, 10 µM turned out to be 98.9%. The same measure, in the same setting: the figure for `c1ccc2oc([C@H]3CCN(C4CCOCC4)C3)nc2c1` [CBK289388] is 92.3%.

For the compound `CN(CC1CCCC1)c1nccc(N2CCN[C@H]3CS(=O)(=O)C[C@H]32)n1` [CBK307060], the viability at 28.5 h, 10 µM was 83.9%.

For the compound `O=C(NCc1nnc(-c2cccs2)o1)c1cccc2ccccc12` [CBK284636], the viability at 28.5 h, 10 µM worked out at 82.1%. Same read-out and setting: the figure for `Cc1cn2c(=O)c(C(=O)Nc3ccccc3C)cnc2s1` [CBK287710] is 94.1%.

Consider `Cc1nnc(SCCCCSc2nnc(C)n2N)n1N` [CBK265686], for which the viability at 28.5 h, 10 µM was 88.5%. Still for that read-out and setting: in the case of `FC(F)(F)Oc1ccc(-c2cc(NCCc3ccccn3)ncn2)cc1` [CBK037732] it was 98.2%.
